# Laboratory results as given in ChEMBL document CHEMBL1201862, “PubChem BioAssay data set” (2004).
#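 Grown in 96-well plates, cells were treated for 48 hours with each compound at five concentrations. Insufficient inhibition: endpoint recorded as highest concentration tested. GI50 is the concentration that inhibits growth by half.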 Activity calls are given as the source filed them. No stated cut-off is given here; in the data, active = GI50 up to about 1.1 µM and inactive = higher.
# Tests used:
# Assay in all cases: inhibition of tumour cell growth, NCI panel, 48 h
# 786-0 = test system: 786-0
# A498 = test system: A498
# A549 = test system: A549
# ACHN = test system: ACHN
# CAKI-1 = test system: CAKI-1
# COLO 205 = test system: COLO 205
# DU-145 = test system: DU-145
# HOP-62 = test system: HOP-62
# HOP-92 = test system: HOP-92
# MDA-MB-435 = test system: MDA-MB-435
# Malme-3M = test system: Malme-3M
# NCI/ADR-RES = test system: NCI/ADR-RES
# SK-MEL-2 = test system: SK-MEL-2
# SNB-19 = test system: SNB-19
# SW-620 = test system: SW-620
# T47D = test system: T47D
# U-251 = test system: U-251
# UACC-257 = test system: UACC-257
# UO-31 = test system: UO-31
# SR = test system: SR
SMILES,GI50 (786-0),GI50 (A498),GI50 (A549),GI50 (ACHN),GI50 (CAKI-1),GI50 (COLO 205),GI50 (DU-145),GI50 (HOP-62),GI50 (HOP-92),GI50 (MDA-MB-435),GI50 (Malme-3M),GI50 (NCI/ADR-RES),GI50 (SK-MEL-2),GI50 (SNB-19),GI50 (SW-620),GI50 (T47D),GI50 (U-251),GI50 (UACC-257),GI50 (UO-31),GI50 (SR)
Cc1cc(C)c2c(=O)n(CN3CCN(c4ccccc4)CC3)sc2n1,16.8 µM (inactive),> 100 µM (inactive),33.8 µM (inactive),20.1 µM (inactive),21 µM (inactive),19.5 µM (inactive),22.2 µM (inactive),34.1 µM (inactive),> 100 µM (inactive),37.8 µM (inactive),37.2 µM (inactive),24.2 µM (inactive),17.2 µM (inactive),> 100 µM (inactive),29.2 µM (inactive),15 µM (inactive),23.4 µM (inactive),46.6 µM (inactive),21.6 µM (inactive),
CC(C)C1=CC2=C(C(=O)C1=O)C13CCCC(C)(C)C1CC2OC3=O (stereo unspecified),17.9 µM (inactive),27.2 µM (inactive),43.5 µM (inactive),19.1 µM (inactive),17.9 µM (inactive),17.2 µM (inactive),18.8 µM (inactive),,19 µM (inactive),20.8 µM (inactive),,18.9 µM (inactive),21.7 µM (inactive),42.9 µM (inactive),14.5 µM (inactive),20.4 µM (inactive),23 µM (inactive),23.9 µM (inactive),19.4 µM (inactive),
COC1/C=C(C)/C=C/C(C)/C=C/C(=O)OC(/C(C)=C/C=C(\C)CNC(=O)[C@H](CO)NC=O)C(C)/C=C/C=C/C(OC)CC/C=C(C)/C=C/C1 (stereo partly specified),0.0288 µM (active),> 1 µM (active),0.0307 µM (active),0.0474 µM (active),0.0706 µM (active),,> 0.312 µM (active),0.0224 µM (active),0.0447 µM (active),0.0224 µM (active),0.0863 µM (active),0.407 µM (active),0.0341 µM (active),> 1 µM (active),0.0469 µM (active),0.0525 µM (active),0.0673 µM (active),0.0264 µM (active),0.197 µM (active),
CC(=O)C1(/N=N/c2ccc(S(N)(=O)=O)cc2)CCOC1=O (stereo unspecified),> 100 µM (inactive),> 100 µM (inactive),> 100 µM (inactive),> 100 µM (inactive),> 100 µM (inactive),> 100 µM (inactive),> 100 µM (inactive),> 100 µM (inactive),> 100 µM (inactive),> 100 µM (inactive),> 100 µM (inactive),> 100 µM (inactive),> 100 µM (inactive),> 100 µM (inactive),> 100 µM (inactive),> 100 µM (inactive),> 100 µM (inactive),> 100 µM (inactive),> 100 µM (inactive),
COc1ccc2cc(CNCCCCCCNCc3ccc4cc(OC)ccc4c3)ccc2c1,0.902 µM (active),1.58 µM (inactive),1.86 µM (inactive),1.57 µM (inactive),1.38 µM (inactive),0.154 µM (active),1.58 µM (inactive),1.64 µM (inactive),,0.204 µM (active),1.05 µM (active),1.44 µM (inactive),1.24 µM (inactive),0.785 µM (active),0.182 µM (active),0.452 µM (active),0.231 µM (active),1.83 µM (inactive),1.63 µM (inactive),0.184 µM (active)
CC(ON1[C@](C)(c2ccccc2)CC[C@@]1(C)c1ccccc1)c1ccccc1 (stereo partly specified),52.4 µM (inactive),,30.9 µM (inactive),,37.8 µM (inactive),43.4 µM (inactive),34.8 µM (inactive),83.4 µM (inactive),21.4 µM (inactive),44.4 µM (inactive),32.5 µM (inactive),48.2 µM (inactive),20 µM (inactive),25.5 µM (inactive),37.9 µM (inactive),24.1 µM (inactive),31 µM (inactive),28.3 µM (inactive),37.9 µM (inactive),
CCOC(=O)C1=COC(C)(C)CC1=O,> 100 µM (inactive),> 100 µM (inactive),> 100 µM (inactive),> 100 µM (inactive),> 100 µM (inactive),> 100 µM (inactive),> 100 µM (inactive),> 100 µM (inactive),,> 100 µM (inactive),,> 100 µM (inactive),> 100 µM (inactive),> 100 µM (inactive),> 100 µM (inactive),> 100 µM (inactive),> 100 µM (inactive),> 100 µM (inactive),> 100 µM (inactive),
